Laboratory results published in ChEMBL document CHEMBL2412997, “Determination of the binding mode and interacting amino-acids for dibasic H3 receptor antagonists” (Bioorg Med Chem, 2013).

The compounds below were run against T1, Histamine H3 receptor (Homo sapiens, UniProt Q9Y5N1) (assay: Binding affinity to histamine H3 receptor (unknown origin)).
T1 sequence (Q9Y5N1 whole entry): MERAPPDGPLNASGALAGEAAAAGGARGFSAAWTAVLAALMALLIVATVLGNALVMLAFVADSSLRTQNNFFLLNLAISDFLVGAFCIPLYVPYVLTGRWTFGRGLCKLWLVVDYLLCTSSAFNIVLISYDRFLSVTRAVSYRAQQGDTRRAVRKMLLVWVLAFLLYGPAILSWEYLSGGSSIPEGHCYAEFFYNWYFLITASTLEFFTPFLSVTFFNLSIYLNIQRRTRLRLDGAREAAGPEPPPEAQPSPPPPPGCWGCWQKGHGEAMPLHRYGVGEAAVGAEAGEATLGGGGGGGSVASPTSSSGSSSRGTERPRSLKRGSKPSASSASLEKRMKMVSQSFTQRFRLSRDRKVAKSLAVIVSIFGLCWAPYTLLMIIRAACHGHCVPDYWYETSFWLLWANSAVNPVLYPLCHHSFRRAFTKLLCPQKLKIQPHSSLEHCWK

Point of comparison: N#CC(C#N)=C1N(CCCCN2CCCCC2)CCN1CCCCN1CCCCC1, Ki 56 nM. Against it:
- CCN1CCCc2c(OCCCN3CCCCC3)cccc21 — 18-fold higher, 1000 nM
- CCN1CCCc2cccc(OCCCN3CCCCC3)c21 — 18-fold higher, 1000 nM
- c1cc(-c2ccc(CCN3CCCCC3)cc2)ccc1CCN1CCCCC1 — 47-fold lower, 1.2 nM
- c1cc(-c2ccc(CN3CCCCC3)cc2)ccc1CN1CCCCC1 — 190-fold lower, 0.3 nM
- N#CC(C#N)=C1N(CCCCN2CCCCC2)CCN1CCCN1CCCCC1 — within 1.5-fold, 61 nM

These compounds were tested against T1, Histamine H3 receptor (assay: Displacement of [125I]iodoproxyfan from histamine H3 receptor (unknown origin) expressed in CHO cells).
Format: cell-based

Point of comparison: c1cc(OCCCN2CCCCC2)ccc1Cc1ccc(OCCCN2CCCCC2)cc1, Ki 0.51 nM. Against it:
- c1cc(OCCCN2CCCCC2)ccc1CCc1ccc(OCCCN2CCCCC2)cc1 — 2.4-fold higher, 1.21 nM
- O=C(/C=C/c1ccc(OCCCN2CCCCC2)cc1)c1ccc(OCCCN2CCCCC2)cc1 — within 1.5-fold, 0.53 nM
- c1cc(-c2ccc(OCCCN3CCCCC3)cc2)ccc1OCCCCN1CCCCC1 — 3.9-fold lower, 0.13 nM
- c1cc(-c2ccc(OCCN3CCCCC3)cc2)ccc1OCCCN1CCCCC1 — within 1.5-fold, 0.49 nM
- FC1(F)CCN(CCCOc2ccc(-c3ccc(OCCCN4CCCCC4)cc3)cc2)CC1 — 18-fold higher, 9.31 nM
- c1cc(-c2ccc(OCCCN3CCCCC3)cc2)ccc1CN1CCCCC1 — 3.2-fold higher, 1.64 nM
- C(=C\c1ccc(-c2ccc(OCCCN3CCCCC3)cc2)cc1)/CN1CCCCC1 — within 1.5-fold, 0.655 nM
- CN1CCN(c2ccc(-c3ccc(OCCCN4CCCCC4)cc3)cc2)CC1 — 2.2-fold lower, 0.23 nM
- C(#Cc1ccc(-c2ccc(OCCCN3CCCCC3)cc2)cc1)CN1CCCCC1 — within 1.5-fold, 0.67 nM
- C(=C/c1ccc(-c2ccc(OCCCN3CCCCC3)cc2)cc1)/CN1CCCCC1 — 8.9-fold lower, 0.057 nM
- c1cc(-c2ccc(OCCCN3CCCCC3)cc2)ccc1CCCN1CCCCC1 — 3-fold lower, 0.17 nM
- c1ccc(-c2ccc(OCCCN3CCCCC3)cc2)c(CN2CCCCC2)c1 — 11-fold lower, 0.045 nM
- c1cc(CN2CCCCC2)cc(-c2ccc(OCCCN3CCCCC3)cc2)c1 — within 1.5-fold, 0.549 nM
- O=C(CCc1ccc(OCCCN2CCCCC2)cc1)c1ccc(OCCCN2CCCCC2)cc1 — within 1.5-fold, 0.64 nM
- c1cc(OCCCN2CCCCC2)ccc1CCCc1ccc(OCCCN2CCCCC2)cc1 — 1.8-fold higher, 0.9 nM
